{"source": "paper PMC8068288", "about": "“Novel Thiol Containing Hybrid Antioxidant-Nitric Oxide Donor Small Molecules for Treatment of Glaucoma” (Antioxidants, 2021)", "key": {"intraocular pressure [1]": {"tested_on": "intraocular pressure", "test": "IOP lowering in dexamethasone induced ocular hypertensive (OHT) mouse eyes", "type": "in vivo", "conditions": "periocular once every week for 4 weeks, baseline 11.85 ± 2.27", "protocol": "Mice (C57BL/6J, 12 weeks, n = 3–5) were anesthetized and the periocular injection of dexamethasone acetate (DEX-Ac, 10 mg/mL) or vehicle (20 μL) was administered immediately under the isoflurane over the course of 10 to 15 s. The procedure was performed in both eyes of each mice after it was numbed with proparacaine as reported previously. Mice were treated with DEX-Ac or vehicle once per week for four weeks to achieve the desired IOP elevation. Baseline IOP was measured using tonometer. […] The entire dosing schedule was repeated 3 times in each mouse eye. IOP plots were generated from IOP values obtained from the treated eyes."}, "intraocular pressure [2]": {"tested_on": "intraocular pressure", "set-up": "method as in private communication, unpublished result", "conditions": "monkey eyes; ref private communication, unpublished result; cited from earlier work"}, "[3]": {"test": "Superoxide anion radical scavenging assay (pyrogallol/WST-1) in buffer", "type": "biochemical", "conditions": "for AUC0–2.5 h of % superoxide scavenging response: 1 mM compound, pyrogallol 1 mM; for earliest time of superoxide (O2−) radical scavenging: buffer solution and TM cells; for superoxide radicals scavenged: dose response 1-1000 µM; for AUC0-15 of % superoxide scavenging response: different concentrations 1-1000 µM, 15 minutes time point", "protocol": "(§1) The ROS scavenging ratio was determined using a chemical assay where WST-1 was used as superoxide scavenger produced by pyrogallol following a reported protocol. Briefly, the superoxide anion radical scavenging activity was determined spectrophotometrically by measuring the formation of WST-1 formazan at 450 nm. WST-1 (40 µL, 50 µM) was added to the compounds (or corresponding solution) in a final volume of 160 µL in 50 mM ammonium hydrogen carbonate buffer, 0.5 mM EDTA, pH 9.3. Reaction was launched by adding 40 µL 1 mM pyrogallol. The operation was based on the 96-well microplate, and measurement was performed at different time points under 37 °C by Cytation5 Microplate Reader. Baicalein (1 mM) was used as positive control. Compounds SA-2, SA-9, and SA-10 were used in concentrations ranging from 1 µM, 10 µM, 100 µM, and 1000 µM. The superoxide anion radical scavenging ratio % was calculated according to the following formula:Scavenging ratio (%) = A0 − (A1 − A2)/A0 × 100%"}, "NTM-5 cells [4]": {"tested_on": "NTM-5 cells", "test": "Superoxide scavenging ratio in NTM-5 cell supernatant (pyrogallol assay), with or without TBHP", "type": "cell-based, human", "conditions": "for AUC0-3h of superoxide scavenging ratio: NTM-5 cell supernatant, 18 h treatment, 0.1-1000 µM", "protocol": "as §1, with “100% […]” for “100%”\n(§2) The experiments were repeated twice with four technical replicates.\nFigure 2 Superoxide scavenging ability of SA compounds in buffer and cells. (a) The % of superoxide scavenging response from 1 mM concentration of SA-2, SA-9, and SA-10 in pyrogallol (Pyr, 1 mM) induced superoxide induction assay at different time points in buffer. The AUC0–2.5 h for SA-2, SA-9, and SA-10 were 1592 ± 37.87, 1355 ± 42.62, and 2350 ± 69.26, respectively. (b) Comparison of the % ROS scavenging activity of SA-2, SA-9, and SA-10 with control after 15 min of treatment of pyrogallol. (c) The superoxide scavenging ratio (%) after 18 h treatment of 10 µM concentration of SA-2, SA-9, and SA-10 to NTM-5 cell supernatant using pyrogallol induced superoxide induction assay at different time points. (d) The superoxide scavenging ratio (%) of 10 µM concentration of SA-2, SA-9, and SA-10 in NTM-5 cell supernatant. The cells were previously treated with 5.5 mM of TBHP for 30 min followed by SA compounds and incubated for 18 h. Control is untreated cells. Three technical replicates were used for each experiment and all experiments were repeated 2 times. * p < 0.05, ** p < 0.005, *** p < 0.001, **** p < 0.0001, One-way ANOVA for (b), and two-way ANOVA for (c,d).\nFigure S1: Superoxide scavenging ability of SA compounds in buffer and cells. a) The % of superoxide scavenging response from different concentrations of SA-2, SA-9 and SA-10 in pyrogallol (1 µM, 10 µM, 100 µM and 1,000 µM) induced superoxide induction assay at 15 minutes time point in buffer solution. The […]\nsuperoxide scavenging ratio (%) after 18h treatment of different concentrations (0.1 µM, 1 µM, 10 µM, 100 µM and 1,000 µM) of SA-2, SA-9 and SA-10 to NTM-5 cell supernatant with or without TBHP (5.5 mM) using pyrogallol induced superoxide induction assay at 3h time point. Control is untreated cells. The cells were previously treated with 5.5 mM of TBHP for 30 minutes followed by SA compounds and TBHP and incubated for 18h. Control is untreated cells. e) The AUC0-3h for SA-2, SA-9 and SA-10 were 18902 ± 2714, […]\nfor each experiment and all experiments were repeated 2 times. N = 3.\n(1 picture or pasted object on this page, not shown here)"}, "NTM-5 cells [5]": {"tested_on": "NTM-5 cells", "test": "Total nitrite release by Griess assay in NTM-5 cell supernatant", "type": "cell-based, human", "conditions": "for NO released in NTM-5 cell supernatants: 28 h at 37 °C; for start of NO release: buffer solution and TM cells", "protocol": "(§3) The total nitrite released from the compounds in buffer and in cell supernatant were measured by Griess assay as reported by us previously. In brief, compounds (SA-2, SA-9, and SA-10) in buffer at different concentrations (1 mM, 500 µM, 250 µM 125 µM, 62.5 µM, 31.25 µM, and 15.625 µM) or supernatant collected from Human transformed trabecular meshwork (NTM-5) cells were added to a 96-well plate. 1% Sulphanilamide in 5% phosphoric acid and 0.1% N-1-napthylethylenediamine dihydrochloride (NED) were added to experimental samples sequentially at room temperature and away from light. SIN-1 was used as reference standard. UV Absorbances (Cytation 5) were measured at specific timepoints (0, 5 min, 10 min, 15 min, 30 min, 24 h, and 28 h) at 520 nm.\nas §2"}, "NTM-5 cells [6]": {"tested_on": "NTM-5 cells", "test": "In vitro cytoprotection assay against TBHP (MTT)", "type": "cell-based", "conditions": "Homo sapiens, TBHP 350 µM, read-out: EC50 of increase in cell viability (cytoprotection)", "protocol": "After 24 h of treatment, cell proliferation was measured using MTT assay. All the experiments are done in duplicate with four experimental replicates."}, "NTM-5 cells [7]": {"tested_on": "NTM-5 cells", "test": "In vitro peroxynitrite measurement assay", "type": "cell-based, human", "conditions": "0.1 µM and 1 mM, with or without TBHP 350 µM", "protocol": "Human transformed trabecular meshwork (NTM-5) cells (20,000 cells/well/90 µL) were seeded in 96-well plates (Griener bio-one black plate) and stained with 10 µL of 10X Peroxynitrite Sensor Green solution for 1 h. […] SIN-1 was used as a positive control. Detection of peroxynitrite was done using Peroxynitrite Assay Kit (abcam-ab233468-cell based). Fluorescence signals were measured using a microplate reader (Cytation5) at Ex/Em = 485/530 nm at time intervals (15 min, 30 min, 1 h, 2 h, and 3 h). The experiments were done in duplicates."}, "[8]": {"set-up": "method as in PMID 26832784", "conditions": "PBS 7.4; cited from earlier work"}, "NTM-5 cells [9]": {"tested_on": "NTM-5 cells", "test": "In vitro cell viability (MTT) assay", "conditions": "for cytotoxicity: NTM-5 cells, 24 h, up to 1000 µM", "method": "NTM-5 cells (6000 cells/well) were seeded in 96-well plates to confluency. […] The cell viability and proliferation were measured using MTT assays (CellTiter 96® AQueous One Solution Cell Proliferation Assay, Promega Madison, WI, USA) following manufacturer instruction. The experiments were repeated twice with four technical replicates."}, "[10]": {"test": "Hypochlorous acid (HOCl) radical scavenging assay (TNB) in buffer", "type": "biochemical", "protocol": "This assay used the redox reaction between 5-thio-2-nitrobenzoic acid (TNB) and HOCl to form dithio-TNB. Using the method described previously, we assessed the % TNB remaining with or without treatment with SA compounds. Compounds SA-2, SA-9, and SA-10 were used in concentrations ranging from 0.1 µM, 1 µM, 10 µM, 100 µM, and 1000 µM. Lipoic acid (1 mM) was used as positive control."}, "[11]": {"test": "Total nitrite/NO release by Griess assay in buffer (aqueous stability)", "type": "physicochemical", "conditions": "even after 3 days", "protocol": "as §3, with “UV Absorbances (Cytation 5) were measured at specific timepoints (0, 5 min, 10 min, 15 min, 30 min, 24 h, and 28 h) at 520 nm.” left out"}, "intraocular pressure [12]": {"tested_on": "intraocular pressure", "set-up": "method as in PMID 8675417", "conditions": "rabbit eyes, 20 mM, intraocular injection; cited from earlier work"}}, "data": [{"smiles": "CC(=O)OCC(=O)[C@@]1(O)[C@H](C)C[C@H]2[C@@H]3CCC4=CC(=O)C=C[C@]4(C)[C@@]3(F)[C@@H](O)C[C@@]21C", "note": "[Dexamethasone, dexamethasone acetate]", "values": [{"measurement": "IOP after dexamethasone injection", "setting": "intraocular pressure [1]", "result": "21.9 ± 5.92", "unit": "mm/Hg"}]}, {"smiles": "CCOC(=O)[N-]c1cn(N2CCOCC2)n[o+]1", "note": "[Molsidomine, molsidomine]", "values": [{"measurement": "NO release profile or IOP lowering activity", "setting": "intraocular pressure [2]", "result": "no NO release profile or IOP lowering activity"}]}, {"smiles": "CC1(C)CC([n+]2cc([NH-])on2)CC(C)(C)N1O", "note": "[SA-2, reference compound]", "values": [{"measurement": "AUC0–2.5 h of % superoxide scavenging response", "setting": "[3]; buffer", "result": "1592 ± 37.87"}, {"measurement": "earliest time of superoxide (O2−) radical scavenging", "setting": "[3]", "result": 7, "unit": "min"}, {"measurement": "superoxide radicals scavenged", "setting": "[3]; buffer", "result": "16–40%"}, {"measurement": "AUC0-15 of % superoxide scavenging response", "setting": "[3]; buffer", "result": "11604± 815.9"}, {"measurement": "AUC0-3h of superoxide scavenging ratio", "setting": "NTM-5 cells [4]; with TBHP 5.5 mM", "result": "18285 ± 3960"}, {"measurement": "AUC0-3h of superoxide scavenging ratio", "setting": "NTM-5 cells [4]; without TBHP", "result": "18902 ± 2714"}, {"measurement": "NO released in NTM-5 cell supernatants", "setting": "NTM-5 cells [5]", "result": "dose dependently"}, {"measurement": "start of NO release", "setting": "NTM-5 cells [5]", "result": "> 24", "unit": "h"}, {"measurement": "EC50", "setting": "NTM-5 cells [6]", "result": 5.2, "unit": "µM"}, {"measurement": "ONOO− radical formation", "setting": "NTM-5 cells [7]", "result": "produced less"}, {"measurement": "half-life in PBS7.4", "setting": "[8]", "result": "< 1", "unit": "h"}, {"measurement": "cytotoxicity", "setting": "NTM-5 cells [9]", "result": "no cytotoxicity"}]}, {"smiles": "Cl.[NH-]c1c[n+](C2CCS(=O)(=O)CC2)no1", "note": "[SA-10, (3-(1,1-dioxidotetrahydro-2H-thiopyran-4-yl)-1,2,3-oxadiazol-3-ium-5-yl) amide hydrochloride]", "values": [{"measurement": "AUC0–2.5 h of % superoxide scavenging response", "setting": "[3]; buffer", "result": "2350 ± 69.26"}, {"measurement": "fold more potent than SA-2 in superoxide scavenging", "setting": "[3]; 1 mM, buffer, 15 min after pyrogallol", "result": 2.5, "unit": "fold"}, {"measurement": "earliest time of superoxide (O2−) radical scavenging", "setting": "[3]", "result": 7, "unit": "min"}, {"measurement": "superoxide radicals scavenged", "setting": "[3]; buffer", "result": "16–40%"}, {"measurement": "AUC0-15 of % superoxide scavenging response", "setting": "[3]; buffer", "result": "20433± 3128"}, {"measurement": "superoxide scavenging ability (ratio)", "setting": "NTM-5 cells [4]; 10 µM for 18 h, NTM-5 cells insulted with TBHP, TBHP alone 2.5%", "result": "20–25%"}, {"measurement": "fold prevention of the decrease in superoxide scavenging ability vs TBHP alone", "setting": "NTM-5 cells [4]; 10 µM for 18 h, TBHP-treated NTM-5 cells", "result": "~ 10 fold"}, {"measurement": "AUC0-3h of superoxide scavenging ratio", "setting": "NTM-5 cells [4]; with TBHP 5.5 mM", "result": "17893 ± 2714"}, {"measurement": "AUC0-3h of superoxide scavenging ratio", "setting": "NTM-5 cells [4]; without TBHP", "result": "21444 ± 1877"}, {"measurement": "fold more potent than lipoic acid in HOCl scavenging", "setting": "[10]; 0.1 µM vs. 1 mM lipoic acid, 30 min", "result": "10,000 fold"}, {"measurement": "duration of HOCl scavenging effect", "setting": "[10]; 0.1 µM–1000 µM in buffer", "result": "> 1", "unit": "h"}, {"measurement": "NO release in buffer", "setting": "[11]", "result": "did not observe any NO release"}, {"measurement": "NO released in NTM-5 cell supernatants", "setting": "NTM-5 cells [5]", "result": "dose dependently"}, {"measurement": "start of NO release", "setting": "NTM-5 cells [5]", "result": "> 24", "unit": "h"}, {"measurement": "EC50", "setting": "NTM-5 cells [6]", "result": 0.0103, "unit": "µM"}, {"measurement": "ONOO− radical formation", "setting": "NTM-5 cells [7]", "result": "not as efficacious as SA-9"}, {"measurement": "cytotoxicity", "setting": "NTM-5 cells [9]", "result": "no cytotoxicity"}]}, {"smiles": "[NH-]c1c[n+](N2CCOCC2)no1", "note": "[SIN-1, linsidomine, reference compound]", "values": [{"measurement": "ONOO− radical formation", "setting": "NTM-5 cells [7]", "result": "significantly higher level"}, {"measurement": "duration of IOP reduction", "setting": "intraocular pressure [12]", "result": "up to 3 h"}]}, {"smiles": "CC(C)(C)OO", "note": "[TBHP, t-butyl hydrogen peroxide, reference compound]", "values": [{"measurement": "EC50", "setting": "NTM-5 cells [9]; Homo sapiens, read-out: half-maximal effective concentration (EC50) dose of TBHP", "result": 350, "unit": "µM"}]}]}
